Data from paper PMC9606955, “In Vitro Activity of Essential Oils Distilled from Colombian Plants against Candida auris and Other Candida Species with Different Antifungal Susceptibility Profiles” (Molecules, 2022).
In brackets after ≈: the same amount, converted by molar mass. Like-named read-outs stand apart in the source and are kept apart here.

Tests used:
C. auris = system: C. auris; design: method as in PMID 31980703; conditions: cited from earlier work
Candida spp. = assay: Screening of antifungal activity at 256 µg/mL against twenty strains; assay type: cell-based; conditions: screening at 256 µg/mL
Excerpt: (§1) The fungal strains used in this study were C. albicans ATCC 10231, C. albicans ATCC 64550, C. parapsilosis ATCC 22019, C. tropicalis ATCC 750, C. tropicalis ATCC 200956 (resistant to azoles and AMB), C. glabrata LMDM 34 (resistant to echinocandins), C. metapsilosis MUM 15.12, C. orthopsilosis MUM 17.13, C. lusitaniae MUM 17.08, C. krusei ATCC 6258 (Issatchenkia orientalis ATCC 6258), and C. auris CDC B11903. Additionally, nine clinical isolates were included: C. parapsilosis Synlab 406 (FLC-resistant) and eight C. auris isolates identified by MALDI-TOF MS (Bruker Daltonics, Bremen, Germany) according to Zhao et al.. These yeasts were cultured on Sabouraud Dextrose Agar (SDA; Sigma-Aldrich, St. Louis, MO, USA) for 24 h at 35 °C.
Antifungal susceptibility testing was performed according to Clinical and Laboratory Standards Institute M27, 4th Edition (CLSI standard M27, 4th Edition). Some modifications were applied for evaluation of the antifungal activity of EOs and terpenes. Initially, a screening was carried out to determine the antifungal activity of the EOs and of commercial terpenes. Stock concentrations of EOs and terpenes were prepared at 512 µg/mL and an inoculum of 2.5 × 10^3 CFU/mL of each yeast was prepared in RPMI 1640-MOPS (Sigma- Aldrich St. Louis, MO, USA). Thereafter, 100 µL of each stock solution of EOs or terpenes was dispensed in 96-well microdilution plates (Corning®, Costar®, NY, USA) and 100 µL of each yeast inoculum was added. […] MICs were visually determined at the lowest concentration that produced visual inhibition compared to the growth control. […] The results were expressed as geometric means (GM) and ranges. As an antifungal susceptibility testing control, the activity of ITC and AMB against the reference strains C. krusei ATCC 6258 and C. parapsilosis ATCC 22019 was evaluated in all experiments following the CLSI standard M27, 4th Edition. […]

C. lusitaniae MUM 17.08 = assay: MIC, CLSI M27 broth microdilution; assay type: cell-based, Candida lusitaniae; conditions: for MIC: Clavispora lusitaniae, read-out: GM MIC
Excerpt: as §1
(§2) Antifungal susceptibility testing was performed according to Clinical and Laboratory Standards Institute M27, 4th Edition (CLSI standard M27, 4th Edition). Some modifications were applied for evaluation of the antifungal activity of EOs and terpenes. Initially, a screening was carried out to determine the antifungal activity of the EOs and of commercial terpenes. Stock concentrations of EOs and terpenes were prepared at 512 µg/mL and an inoculum of 2.5 × 10^3 CFU/mL of each yeast was prepared in RPMI 1640-MOPS (Sigma- Aldrich St. Louis, MO, USA). Thereafter, 100 µL of each stock solution of EOs or terpenes was dispensed in 96-well microdilution plates (Corning®, Costar®, NY, USA) and 100 µL of each yeast inoculum was added. […] Microdilution plates were incubated at 35 °C and, after 24 h, the presence or absence of growth was visually checked using a manual mirror viewer and then compared with the amount of growth in the control (no EO or terpene). Compounds able to inhibit yeast growth were tested to determine the minimal inhibitory concentration (MIC) as follows: 100 µL of 10 two-fold dilutions of the EOs or commercial terpenes was dispensed in 96-well microplates and the yeast inoculum was added. Final concentrations of the EOs or terpenes ranged from 0.5 µg/mL to 256 µg/mL. Microdilution plates were incubated at 35 °C for 24 h. MICs were visually determined at the lowest concentration that produced visual inhibition compared to the growth control. The assays were performed at least three times in duplicate on different days. The results were expressed as geometric means (GM) and ranges. As an antifungal susceptibility testing control, the activity of ITC and AMB against the reference strains C. krusei ATCC 6258 and C. parapsilosis ATCC 22019 was evaluated in all experiments following the CLSI standard M27, 4th Edition. It was mandatory that the MIC values remained in the accepted range.

[1] = system: C. orthopsilosis MUM 17.13; assay: MIC, CLSI M27 broth microdilution; assay type: cell-based, Candida orthopsilosis; conditions: Lodderomyces orthopsilosis, read-out: GM MIC
Excerpt: as §1, §2

[2] = system: C. parapsilosis Synlab 406; assay: MIC, CLSI M27 broth microdilution; assay type: cell-based, Candida parapsilosis; conditions: for MIC: Lodderomyces parapsilosis, read-out: GM MIC
Excerpt: as §1, §2

C. krusei ATCC 6258 = assay: MIC, CLSI M27 broth microdilution; assay type: cell-based, Candida krusei; conditions: for MIC: Pichia kudriavzevii, read-out: GM MIC
Excerpt: as §1, §2

C. auris CDC B11903 = assay: MIC, CLSI M27 broth microdilution; assay type: cell-based, Candida auris; conditions: for MIC: Candidozyma auris, read-out: GM MIC
Excerpt: as §1, §2

C. auris Ca 46 = assay: MIC, CLSI M27 broth microdilution; assay type: cell-based, Candida auris; conditions: Candidozyma auris, read-out: GM MIC
Excerpt: as §1, §2

C. auris Ca 13 = assay: MIC, CLSI M27 broth microdilution; assay type: cell-based, Candida auris; conditions: for MIC: Candidozyma auris, read-out: GM MIC
Excerpt: as §1, §2

C. auris Ca 1 = assay: MIC, CLSI M27 broth microdilution; assay type: cell-based, Candida auris
Excerpt: as §1, §2

C. auris Ca 17 = assay: MIC, CLSI M27 broth microdilution; assay type: cell-based, Candida auris; conditions: Candidozyma auris, read-out: GM MIC
Excerpt: as §1, §2

C. auris Ca 9 = assay: MIC, CLSI M27 broth microdilution; assay type: cell-based, Candida auris; conditions: Candidozyma auris, read-out: GM MIC
Excerpt: as §1, §2

C. auris Ca 45 = assay: MIC, CLSI M27 broth microdilution; assay type: cell-based, Candida auris; conditions: for MIC: Candidozyma auris, read-out: GM MIC
Excerpt: as §1, §2

C. auris Ca 41 = assay: MIC, CLSI M27 broth microdilution; assay type: cell-based, Candida auris; conditions: for MIC: Candidozyma auris, read-out: GM MIC
Excerpt: as §1, §2

C. auris Ca 32 = assay: MIC, CLSI M27 broth microdilution; assay type: cell-based, Candida auris; conditions: Candidozyma auris, read-out: GM MIC
Excerpt: as §1, §2

[3] = system: C. metapsilosis MUM 15.12; assay: MIC, CLSI M27 broth microdilution; assay type: cell-based, Candida metapsilosis; conditions: Lodderomyces metapsilosis, read-out: GM MIC
Excerpt: as §1, §2

[4] = system: C. tropicalis ATCC 200956; assay: MIC, CLSI M27 broth microdilution; assay type: cell-based, Candida tropicalis; conditions: for MIC: Candida tropicalis, read-out: GM MIC
Excerpt: as §1, §2

Cytotoxicity, MTT assay = conditions: human, HaCaT keratinocyte cells
Method: Cells were cultured in Dulbecco’s Modified Eagle Medium (DMEM; Sigma-Aldrich, St. Louis, MO, USA) supplemented with 10% fetal bovine serum (Invitrogen, Carlsbad, CA, USA), 1% penicillin, streptomycin, and neomycin (Invitrogen, Carlsbad, CA, USA), and 1% L-glutamine (Invitrogen, Carlsbad, CA, USA) at 37 °C in a humidified atmosphere of 5% CO2. […] Afterwards, the culture medium was removed and 3-(4.5-dimethylthiazol-2-yl)-2.5-diphenyltetrazolium bromide (MTT) (Sigma-Aldrich, St. Louis, MO, USA) at 5 mg/mL was added at 37 °C for 2 h. Subsequently, DMSO was added to dissolve the formazan crystals. Finally, the absorbances were measured with a Multiskan SkyHigh Microplate Spectrophotometer (Thermo Fisher Scientific, Waltham, MA, USA) at λ = 570 nm. The CC50 values were obtained by linear regression analysis with concentration–response curves, which were performed with absorbance data using GraphPad Prism software (Prism 9.3.0, San Diego, CA, USA). The assays were conducted at two separate times in triplicate. The data were expressed as means.

Structure (SMILES): Cc1ccc(C(C)C)cc1O [Carvacrol, carvacrol]
- MIC Range (C. auris): 63 to 250 mg/L
- antifungal activity in screening (Candida spp.): active against all tested Candida spp.
- Range MIC (C. lusitaniae MUM 17.08; C. lusitaniae MUM 17.08, EOs and terpenes): 128 to 256 mg/L
- MIC (C. lusitaniae MUM 17.08; MUM17.08, 24 h): 181 mg/L (≈ 1200 µM)
- MIC ([1]; MUM17.13, 24 h): 128 mg/L (≈ 852 µM)
- Range MIC ([2]; C. parapsilosis Synlab 406, EOs and terpenes): 32 to 64 mg/L
- MIC ([2]; SYNLAB406, 24 h): 45.3 mg/L (≈ 302 µM)
- MIC (C. krusei ATCC 6258; ATCC6258, 24 h): 256 mg/L (≈ 1700 µM)
- Range MIC (C. auris CDC B11903; C. auris CDC B11903, EOs and terpenes): 64 to 128 mg/L
- MIC (C. auris CDC B11903; CDCB11903, 24 h): 90.5 mg/L (≈ 602 µM)
- MIC (C. auris Ca 46; CA46, 24 h): 64 mg/L (≈ 426 µM)
- Range MIC (C. auris Ca 13; C. auris Ca 13, EOs and terpenes): 128 to 256 mg/L
- MIC (C. auris Ca 13; CA13, 24 h): 181 mg/L (≈ 1200 µM)
- Range MIC (C. auris Ca 1; C. auris Ca 1, EOs and terpenes): 128 to 256 mg/L
- MIC (C. auris Ca 1; Candidozyma auris, CA1, 24 h, read-out: GM MIC): 181 mg/L (≈ 1200 µM)
- MIC (C. auris Ca 17; CA17, 24 h): 128 mg/L (≈ 852 µM)
- MIC (C. auris Ca 9; CA9, 24 h): 256 mg/L (≈ 1700 µM)
- Range MIC (C. auris Ca 45; C. auris Ca 45, EOs and terpenes): 64 to 128 mg/L
- MIC (C. auris Ca 45; CA45, 24 h): 90.5 mg/L (≈ 602 µM)
- Range MIC (C. auris Ca 41; C. auris Ca 41, EOs and terpenes): 64 to 128 mg/L
- MIC (C. auris Ca 41; CA41, 24 h): 90.5 mg/L (≈ 602 µM)
- MIC (C. auris Ca 32; CA32, 24 h): 64 mg/L (≈ 426 µM)
- MIC ([3]; MUM15.12, 24 h): 128 mg/L (≈ 852 µM)
- MIC ([4]; ATCC200956, 24 h): 128 mg/L (≈ 852 µM)
- CC50 at 24 h (Cytotoxicity, MTT assay): 411 mg/L (≈ 2730 µM)

Structure (SMILES): Cc1ccc(C(C)C)cc1 [p-Cymene, p-cymene]
- MIC (C. lusitaniae MUM 17.08; MUM17.08, C. lusitaniae MUM 17.08, EOs and terpenes, 24 h, top concentration 256 µg/mL): 256 mg/L (≈ 1910 µM)
- MIC ([1]; MUM17.13, C. orthopsilosis MUM 15.12 (Table 3), EOs and terpenes, 24 h, top concentration 256 µg/mL): 256 mg/L (≈ 1910 µM)
- MIC ([2]; SYNLAB406, C. parapsilosis Synlab 406, EOs and terpenes, 24 h, top concentration 256 µg/mL): 256 mg/L (≈ 1910 µM)
- Range MIC (C. krusei ATCC 6258; C. krusei ATCC 6258, EOs and terpenes): 128 to 256 mg/L
- MIC (C. krusei ATCC 6258; ATCC6258, C. krusei ATCC 6258, EOs and terpenes, 24 h, top concentration 256 µg/mL): 181 mg/L (≈ 1350 µM)
- MIC (C. auris CDC B11903; CDCB11903, C. auris CDC B11903, EOs and terpenes, 24 h, top concentration 256 µg/mL): 256 mg/L (≈ 1910 µM)
- MIC (C. auris Ca 46; CA46, C. auris Ca 46, EOs and terpenes, 24 h, top concentration 256 µg/mL): 256 mg/L (≈ 1910 µM)
- MIC (C. auris Ca 13; CA13, C. auris Ca 13, EOs and terpenes, 24 h, top concentration 256 µg/mL): 256 mg/L (≈ 1910 µM)
- MIC (C. auris Ca 17; CA17, C. auris Ca 17, EOs and terpenes, 24 h, top concentration 256 µg/mL): 256 mg/L (≈ 1910 µM)
- MIC (C. auris Ca 9; CA9, C. auris Ca 9, EOs and terpenes, 24 h, top concentration 256 µg/mL): 256 mg/L (≈ 1910 µM)
- MIC (C. auris Ca 45; CA45, C. auris Ca 45, EOs and terpenes, 24 h, top concentration 256 µg/mL): 256 mg/L (≈ 1910 µM)
- MIC (C. auris Ca 41; CA41, C. auris Ca 41, EOs and terpenes, 24 h, top concentration 256 µg/mL): 256 mg/L (≈ 1910 µM)
- MIC (C. auris Ca 32; CA32, C. auris Ca 32, EOs and terpenes, 24 h, top concentration 256 µg/mL): 128 mg/L (≈ 954 µM)
- MIC ([3]; MUM15.12, C. metapsilosis MUM 17.13 (Table 3), EOs and terpenes, 24 h, top concentration 256 µg/mL): 256 mg/L (≈ 1910 µM)
- Range MIC ([4]; C. tropicalis ATCC 200956, EOs and terpenes): 128 to 256 mg/L
- MIC ([4]; ATCC200956, C. tropicalis ATCC 200956, EOs and terpenes, 24 h, top concentration 256 µg/mL): 181 mg/L (≈ 1350 µM)
- CC50 at 24 h (Cytotoxicity, MTT assay): 831 mg/L (≈ 6190 µM)
